Results as given in patent publication US20260234157A1, “COMPOUND AND METHOD FOR TARGETED DEGRADATION OF ANDROGEN RECEPTOR” (Gan & Lee Pharmaceuticals Co., Ltd., priority 2023, published 2026).
Where a chain is given by its changes, count along the chain named. Read-outs that look alike come from different tables or passages of the source.

Key:
Assay type in all cases: cell-based
[1] = target: T1, AR protein (Homo sapiens, UniProt P10275, T878A); assay: Degradation of AR protein in LNCaP cells (Western blot); conditions: for inhibition at 0.01 µM: read-out: Degradation rates of the AR protein in LNCaP cells, 10 nM (%); for inhibition at 0.1 µM: read-out: Degradation rates of the AR protein in LNCaP cells, 100 nM (%)
T1 construct: degradation activity of the compounds disclosed in the present disclosure on AR protein in LNCaP cells; host or cells: LNCaP FGC
T1 sequence (P10275 1-920 T878A): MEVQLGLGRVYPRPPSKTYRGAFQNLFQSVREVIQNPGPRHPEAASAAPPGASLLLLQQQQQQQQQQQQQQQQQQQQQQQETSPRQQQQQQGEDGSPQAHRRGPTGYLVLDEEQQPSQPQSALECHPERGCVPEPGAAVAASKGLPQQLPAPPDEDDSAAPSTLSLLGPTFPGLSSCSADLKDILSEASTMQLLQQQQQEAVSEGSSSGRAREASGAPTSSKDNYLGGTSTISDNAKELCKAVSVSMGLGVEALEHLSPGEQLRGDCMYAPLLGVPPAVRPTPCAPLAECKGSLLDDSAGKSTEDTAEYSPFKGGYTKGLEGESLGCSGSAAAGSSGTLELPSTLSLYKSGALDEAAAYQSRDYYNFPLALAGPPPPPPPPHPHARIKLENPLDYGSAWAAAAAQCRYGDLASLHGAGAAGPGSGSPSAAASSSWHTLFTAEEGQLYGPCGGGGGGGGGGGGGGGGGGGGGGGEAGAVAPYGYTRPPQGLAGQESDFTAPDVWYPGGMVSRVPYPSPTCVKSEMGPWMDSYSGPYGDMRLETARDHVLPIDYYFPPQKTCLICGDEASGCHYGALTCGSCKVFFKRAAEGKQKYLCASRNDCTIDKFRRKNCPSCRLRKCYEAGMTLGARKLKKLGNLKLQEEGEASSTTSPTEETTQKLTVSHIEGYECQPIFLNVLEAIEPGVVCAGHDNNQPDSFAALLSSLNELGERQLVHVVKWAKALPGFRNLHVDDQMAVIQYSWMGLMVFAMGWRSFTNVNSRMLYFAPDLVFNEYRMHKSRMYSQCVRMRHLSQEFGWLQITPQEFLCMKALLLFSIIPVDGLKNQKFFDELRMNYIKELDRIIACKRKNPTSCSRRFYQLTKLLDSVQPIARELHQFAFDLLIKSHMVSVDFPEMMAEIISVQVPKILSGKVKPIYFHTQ
Procedure: The degradation activity of the compounds disclosed in the present disclosure on AR protein in LNCaP cells (cell source: ATCC)
(§1) Corresponding solvent controls were also set and cultured for 8 hours. After 8 hours of cultivation, the culture medium was removed and the cells were washed with PBS. RIPA lysis buffer containing 1% Protease Inhibitor Cocktail was added, and the total protein extract was obtained by lysis and centrifugation. The protein concentration in the extract was detected by BCA method. Protein electrophoresis was performed using SDS-PAGE, followed by transfer of the protein onto a PVDF (Millipore Sigma catalog No. PSRP010R5) membrane at 100V constant voltage for 60 minutes. The PVDF membrane was then placed in a 1×TBST solution with 5% milk and blocked at room temperature for 1 hour. […] The primary antibody solution was discarded and the PVDF membrane was washed three times with 1×TBST for 5 minutes/time. […] The secondary antibody solution was discarded and the PVDF membrane was washed three times with 1×TBST for 5 minutes/time. Western blot imaging was performed by using a dual color infrared laser imaging system (Licor catalog No. Odyssey CLX). Bands were analyzed in grayscale using Image Studio software. For each sample, GAPDH protein bands were detected as internal reference. The degradation rates of the AR protein for the compounds and the positive control sample were calculated based on grayscale of the protein bands.

[2] = target: T2, AR protein (Homo sapiens, UniProt P10275); assay: Degradation of AR protein in VCaP cells (Western blot); conditions: 8 hours; for inhibition at 0.01 µM: read-out: Degradation rate of the AR protein in VCaP cells, 10 nM (%); for inhibition at 0.1 µM: read-out: Degradation rate of the AR protein in VCaP cells, 100 nM (%)
T2 construct: degradation activity of the compounds disclosed in the present disclosure on AR protein in VCaP cells; host or cells: VCaP
T2 sequence (P10275 1-920): T1 sequence (P10275 1-920 T878A) with A878T
Procedure: The degradation activity of the compounds disclosed in the present disclosure on AR protein in VCaP cells (cell source: ATCC)
as §1

[3] = tested on: LNCaP FGC cells; assay: Inhibition of proliferation of LNCaP cells (WST-8)
Procedure: The cells were cultured in a cell culture incubator with 5% CO2 at 37° C. overnight. […] On the sixth day, 96 well plates were taken out, and 20 μL of WST-8 (Beytime, C0040) reagent was added to each well.

[4] = LNCaP cells, compound 10 nM, 8 hours, Western blot grayscale, GAPDH internal reference
[5] = LNCaP cells, compound 100 nM, 8 hours, Western blot grayscale, GAPDH internal reference
[6] = Homo sapiens, LNCaP, 96 h, LNCaP FGC cells, 96 hours, WST-8 absorbance at 450 nm, read-out: IC50 for inhibiting the proliferation of LNCaP cells
[7] = LNCaP FGC cells, 96 hours, WST-8 absorbance at 450 nm, read-out: IC50 for inhibiting the proliferation of LNCaP cells
[8] = Homo sapiens, LNCaP, 96 h, read-out: IC50 for inhibiting the proliferation of LNCaP cells, LNCaP FGC cells, 96 hours, WST-8 absorbance at 450 nm

Row | Structure (SMILES) | inhibition at 0.01 µM [1, 4] | inhibition at 0.1 µM [1, 5] | inhibition at 0.01 µM ([2]; compound at 10 nM) | inhibition at 0.1 µM ([2]; compound at 100 nM) | IC50 [3, 6] | also measured
1 | COc1cc(O[C@H]2C(C)(C)[C@H](NC(=O)c3ccc(N4CCC(CN5CCC6(CC5)COc5c6ccc6c5CN(C5CCC(=O)NC5=O)C6=O)(OC)CC4)cc3)C2(C)C)ccc1C#N (stereo partly shown) [Compound 217] | -2% | 48% | 49% | 83% | 5 nM | –
2 | N#Cc1ccc(O[C@H]2CC[C@H](NC(=O)c3ccc(N4CC[C@H](CN5CCC6(CC5)COc5c6ccc6c5CN(C5CCC(=O)NC5=O)C6=O)[C@H](F)C4)nn3)CC2)cc1Cl (stereo partly shown) [Compound 226] | 52% | 34% | 74% | 83% | 2.5 nM | –
3 | N#Cc1ccc(O[C@H]2CC[C@H](NC(=O)c3ccc(N4CCC(F)(CN5CCC6(CC5)COc5c6ccc6c5CN(C5CCC(=O)NC5=O)C6=O)CC4)nc3)CC2)cc1Cl (stereo partly shown) [Compound 216] | – | – | 54% | 80% | 6 nM | –
4 | N#Cc1ccc(O[C@H]2CC[C@H](NC(=O)c3ccc(N4CCC(F)(CN5CCC6(CCc7ccc8c(c7O6)CN(C6CCC(=O)NC6=O)C8=O)CC5)CC4)nn3)CC2)cc1Cl (stereo partly shown) [Compound 166] | 36% | 19% | 43% | 60% | – | Degradation rate of the AR protein in VCaP cells, 10 nM (%) ([2]; compound at 10 nM): 15%; Degradation rate of the AR protein in VCaP cells, 100 nM (%) ([2]; compound at 100 nM): 42%; IC50 [3, 7]: 71800 nM
5 | CC1(C)[C@H](NC(=O)c2ccc(N3CCC(C#N)(CN4CCC5(CC4)COc4c5ccc5c4CN(C4CCC(=O)NC4=O)C5=O)CC3)nn2)C(C)(C)[C@H]1Oc1ccc(C#N)c(Cl)c1 (stereo partly shown) [Compound 225] | -35% | 7% | -29% | 30% | 30 nM | –
6 | COc1cc(O[C@H]2C(C)(C)[C@H](NC(=O)c3ccc(N4CCC(CN5CCC6(CCc7ccc8c(c7O6)CN(C6CCC(=O)NC6=O)C8=O)CC5)CC4)cc3)C2(C)C)ccc1C#N (stereo partly shown) [Compound 298] | 27% | 55% | – | – | 12100 nM | –
7 | N#Cc1ccc(O[C@H]2CC[C@H](NC(=O)c3ccc(N4CC5(CCC(N6CCC7(CCc8ccc9c(c8O7)CN(C7CCC(=O)NC7=O)C9=O)CC6)CC5)C4)nn3)CC2)cc1Cl (stereo partly shown) [Compound 153] | 23% | 19% | 35% | 76% | 13600 nM | –
8 | COc1cc(O[C@H]2C(C)(C)[C@H](NC(=O)c3ccc(N4CCC(F)(CN5CCC6(CC5)COc5c6ccc6c5CN(C5CCC(=O)NC5=O)C6=O)CC4)cc3)C2(C)C)ccc1C#N (stereo partly shown) [Compound 223] | 27% | 20% | -3% | 52% | 9 nM | –
9 | N#Cc1ccc(O[C@H]2CC[C@H](NC(=O)c3ccc(N4CCC(N5CCC6(CC5)COc5c(ccc7c5C(=O)N(C5CCC(=O)NC5=O)C7)C6)CC4)nn3)CC2)cc1Cl (stereo partly shown) [Compound 189] | – | – | – | – | – | inhibition at 0.01 µM ([1]; LNCaP, 8 h): 42%; inhibition at 0.1 µM ([1]; LNCaP, 8 h): 57%; IC50 [3, 8]: 26900 nM
10 | COc1cc(O[C@H]2CC[C@H](NC(=O)c3ccc(N4CCC(CN5CC6(CCc7cc8c(cc7O6)C(=O)N(C6CCC(=O)NC6=O)C8=O)C5)(OC)CC4)cc3)CC2)ccc1C#N (stereo partly shown) [Compound 285] | – | – | -5% | 66% | – | inhibition at 0.01 µM ([1]; LNCaP, 8 h): 40%; inhibition at 0.1 µM ([1]; LNCaP, 8 h): 54%; IC50 [3, 8]: 840 nM
11 | CC1(CN2CCC3(CC2)COc2c(ccc4c2C(=O)N(C2CCC(=O)NC2=O)C4)C3)CCN(c2ccc(C(=O)NC3CCC(Oc4ccc(C#N)c(Cl)c4)CC3)nn2)CC1 (stereo not shown) [Compound 187] | – | – | – | – | 390 nM | –
12 | CC1(C)C(=O)N(c2ccc(C#N)c(C(F)(F)F)c2)C(=S)N1c1ccc(C(=O)N2CC3(CCC(N4CCC5(CCc6cc7c(cc6O5)C(=O)N(C5CCC(=O)NC5=O)C7=O)CC4)CC3)C2)c(F)c1 (stereo not shown) [Compound 117] | – | – | – | – | – | IC50 [3, 8]: 2570 nM
13 | COC1(CN2CCC3(CCc4ccc5c(c4O3)CN(C3CCC(=O)NC3=O)C5=O)CC2)CCN(c2ccc(C(=O)N[C@H]3CC[C@H](Oc4ccc(C#N)c(Cl)c4)CC3)nn2)CC1 (stereo partly shown) [Compound 133] | – | – | – | – | – | IC50 [3, 7]: 23700 nM
14 | CC1(C)C(=O)N(c2ccc(C#N)c(C(F)(F)F)c2)C(=S)N1c1ccc(C(=O)N2CC[C@@H](CN3CCC4(CCc5cc6c(cc5O4)C(=O)N(C4CCC(=O)NC4=O)C6=O)CC3)C2)c(F)c1 (stereo partly shown) [Compound 127] | – | – | – | – | 6280 nM | –
15 | CC1(C)C(=O)N(c2ccc(C#N)c(C(F)(F)F)c2)C(=S)N1c1ccc(C(=O)N2CCC3(CCC(N4CCC5(CCc6cc7c(cc6O5)C(=O)N(C5CCC(=O)NC5=O)C7=O)CC4)CC3)C2)c(F)c1 (stereo not shown) [Compound 129] | – | – | – | – | 3630 nM | –
16 | CC1(CN2CC3(CCc4cc5c(cc4O3)CN(C3CCC(=O)NC3=O)C5=O)C2)CCN(c2ccc(C(=O)N[C@H]3CC[C@H](Oc4ccc(C#N)c(Cl)c4)CC3)nn2)CC1 (stereo partly shown) [Compound 12] | – | – | – | – | – | IC50 [3, 7]: 730 nM
17 | N#Cc1ccc(O[C@H]2CC[C@H](NC(=O)c3ccc(N4CCC5(CCC(N6CCC7(CC6)COc6c(ccc8c6C(=O)N(C6CCC(=O)NC6=O)C8)C7)CC5)CC4)nn3)CC2)cc1Cl (stereo partly shown) [Compound 190] | 53% | 75% | – | – | 5150 nM | –
